≈ marks a conversion by molar mass, not a printed value. Read-outs that look alike come from different tables or passages of the source.
Key:
[1] = test system: Staphylococcus aureus S13E; experiment: microbe, parasite or virus in culture; assay type: cell-based
Method: (§1) The MIC's in Table III were determined by standard agar-dilution assays. The MIC's in Table IV were obtained using conventional brothdilution microtiter tests.

[2] = test system: Streptococcus pneumoniae Park I; experiment: microbe, parasite or virus in culture; assay type: cell-based
Method: as §1

[3] = test system: Pasteurella hemolytica 41D; experiment: broth-dilution microtiter MIC test; assay type: cell-based; conditions: broth-dilution microtiter
Method: as §1

[4] = test system: Pasteurella multocida 60A; experiment: broth-dilution microtiter MIC test; assay type: cell-based; conditions: broth-dilution microtiter; Avian isolate
Method: as §1

[5] = test system: Pasteurella multocida 17E; experiment: broth-dilution microtiter MIC test; assay type: cell-based; conditions: broth-dilution microtiter; Bovine isolate
Method: as §1

Streptococcus sp. 19F = experiment: broth-dilution microtiter MIC test; assay type: cell-based; conditions: broth-dilution microtiter
Method: as §1

[6] = test system: Mycoplasma hyopneumoniae S5972; experiment: broth-dilution microtiter MIC test; assay type: cell-based; conditions: broth-dilution microtiter
Method: as §1

[7] = test system: Pasteurella multocida 40G; experiment: broth-dilution microtiter MIC test; assay type: cell-based; conditions: broth-dilution microtiter
Method: as §1

[8] = test system: Pasteurella multocida 22A; experiment: broth-dilution microtiter MIC test; assay type: cell-based; conditions: broth-dilution microtiter
Method: as §1

[9] = test system: Pasteurella hemolytica 23C; experiment: broth-dilution microtiter MIC test; assay type: cell-based; conditions: broth-dilution microtiter
Method: as §1

[10] = test system: Mycoplasma gallisepticum 36H; experiment: broth-dilution microtiter MIC test; assay type: cell-based; conditions: broth-dilution microtiter
Method: as §1

[11] = test system: Bordetella bronchiseptica; experiment: broth-dilution microtiter MIC test; assay type: cell-based; conditions: broth-dilution microtiter
Method: as §1

[12] = test system: Pasteurella multocida 68C; experiment: broth-dilution microtiter MIC test; assay type: cell-based; conditions: broth-dilution microtiter
Method: as §1

[13] = test system: Staphylococcus aureus 19C; experiment: broth-dilution microtiter MIC test; assay type: cell-based; conditions: broth-dilution microtiter
Method: as §1

Mycoplasma hyorhinis 29E = experiment: broth-dilution microtiter MIC test; assay type: cell-based; conditions: broth-dilution microtiter
Method: as §1

Mycoplasma synoviae 40A = experiment: broth-dilution microtiter MIC test; assay type: cell-based; conditions: broth-dilution microtiter
Method: as §1

[14] = test system: Pasteurella hemolytica 22C; experiment: broth-dilution microtiter MIC test; assay type: cell-based; conditions: broth-dilution microtiter
Method: as §1

[15] = test system: Mycoplasma gallisepticum 15E; experiment: broth-dilution microtiter MIC test; assay type: cell-based; conditions: broth-dilution microtiter
Method: as §1

[16] = test system: Mycoplasma gallisepticum 29C; experiment: broth-dilution microtiter MIC test; assay type: cell-based; conditions: broth-dilution microtiter
Method: as §1

[17] = test system: Pseudomonas aeruginosa X239; experiment: standard agar-dilution MIC assay; assay type: cell-based; conditions: agar-dilution
Method: as §1

[18] = test system: Streptococcus Group D X66; experiment: standard agar-dilution MIC assay; assay type: cell-based
Method: as §1

[19] = test system: Streptococcus Group D 9960; experiment: standard agar-dilution MIC assay; assay type: cell-based
Method: as §1

[20] = test system: Streptococcus pyogenes C203; experiment: standard agar-dilution MIC assay; assay type: cell-based
Method: as §1

[21] = test system: Staphylococcus epidermidis EPI1; experiment: standard agar-dilution MIC assay; assay type: cell-based
Method: as §1

[22] = test system: Klebsiella pneumoniae X68; experiment: standard agar-dilution MIC assay; assay type: cell-based; conditions: agar-dilution
Method: as §1

[23] = test system: Staphylococcus aureus V41; experiment: standard agar-dilution MIC assay; assay type: cell-based
Method: as §1

[24] = test system: Staphylococcus aureus X400; experiment: standard agar-dilution MIC assay; assay type: cell-based
Method: as §1

[25] = test system: Haemophilus influenzae 76; experiment: standard agar-dilution MIC assay; assay type: cell-based
Method: as §1

[26] = test system: Haemophilus influenzae C.L.; experiment: standard agar-dilution MIC assay; assay type: cell-based
Method: as §1

[27] = test system: Staphylococcus epidermidis 222; experiment: standard agar-dilution MIC assay; assay type: cell-based
Method: as §1

[28] = test system: Staphylococcus aureus X1.1; experiment: standard agar-dilution MIC assay; assay type: cell-based
Method: as §1

[29] = test system: Streptococcus pyogenes C203; experiment: protection of mice experimentally infected with S. pyogenes C203; assay type: in vivo; conditions: mice, mg/kg × 2, doses given 1 and 4 hours postinfection, read-out: ED50
Procedure, shortened: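 Activity is given as ED50, the mg/kg dose (×2) protecting half of the mice infected with S. pyogenes C203. Compound was dosed 1 and 4 h after infection.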

Escherichia coli EC14 = experiment: standard agar-dilution MIC assay; assay type: cell-based
Method: as §1

[30] = test system: Streptococcus Group D 2041; experiment: standard agar-dilution MIC assay; assay type: cell-based; conditions: GROUPD2041
Method: as §1

[31] = Pseudomonas aeruginosa, X239, read-out: MIC
[32] = Klebsiella pneumoniae, X68, read-out: MIC

Compound: CC[C@H]1OC(=O)C[C@@H](O)[C@H](C)[C@@H](O[C@@H]2O[C@H](C)[C@@H](O)[C@H](N(C)C)[C@H]2O)[C@@H](CC=O)C[C@@H](C)C(=O)/C=C/C(C)=C/[C@@H]1CO[C@@H]1O[C@H](C)[C@@H](OC(=O)COc2ccccc2)[C@@H](O)[C@H]1OC [Compound 34, 4"-O-Phenoxyacetyl-lactenocin]
- MIC ([1]; agar-dilution): 1 µg/mL (≈ 1.12 µM)
- MIC ([2]; agar-dilution): 0.12 µg/mL (≈ 0.135 µM)
- MIC [3]: 25 µg/mL (≈ 28 µM)
- MIC [4]: 12.5 µg/mL (≈ 14 µM)
- MIC [5]: 6.25 µg/mL (≈ 7.01 µM)
- MIC (Streptococcus sp. 19F): 1.56 µg/mL (≈ 1.75 µM)
- MIC [6]: 0.097 µg/mL (≈ 0.109 µM)
- MIC [7]: 12.5 µg/mL (≈ 14 µM)
- MIC [8]: 12.5 µg/mL (≈ 14 µM)
- MIC [9]: 25 µg/mL (≈ 28 µM)
- MIC [10]: 12.5 µg/mL (≈ 14 µM)
- MIC [11]: 50 µg/mL (≈ 56.1 µM)
- MIC [12]: 12.5 µg/mL (≈ 14 µM)
- MIC [13]: 0.78 µg/mL (≈ 0.874 µM)
- MIC (Mycoplasma hyorhinis 29E): 6.25 µg/mL (≈ 7.01 µM)
- MIC (Mycoplasma synoviae 40A): 0.097 µg/mL (≈ 0.109 µM)
- MIC [14]: 25 µg/mL (≈ 28 µM)
- MIC [15]: 25 µg/mL (≈ 28 µM)
- MIC [16]: ≤ 0.048 µg/mL
- MIC [17]: -- (Not active at 128 mcg/mL, the highest level tested)
- MIC [18]: 1 µg/mL (≈ 1.12 µM)
- MIC [19]: 1 µg/mL (≈ 1.12 µM)
- MIC ([20]; agar-dilution): 0.12 µg/mL (≈ 0.135 µM)
- MIC ([21]; agar-dilution): 1 µg/mL (≈ 1.12 µM)
- MIC [22]: -- (Not active at 128 mcg/mL, the highest level tested)
- MIC ([23]; agar-dilution, Penicillin-resistant strain): 1 µg/mL (≈ 1.12 µM)
- MIC ([24]; agar-dilution, Methicillin-resistant strain): 1 µg/mL (≈ 1.12 µM)
- MIC ([25]; agar-dilution, Ampicillin-resistant strain): 4 µg/mL (≈ 4.48 µM)
- MIC ([26]; agar-dilution, Ampicillin-sensitive strain): 4 µg/mL (≈ 4.48 µM)
- MIC ([27]; agar-dilution): 0.5 µg/mL (≈ 0.561 µM)
- MIC ([28]; agar-dilution): 1 µg/mL (≈ 1.12 µM)

Compound: CCC1OC(=O)CC(O)C(C)C(OC2OC(C)C(O)C(N(C)C)C2O)C(CCOc2ccccc2)CC(C)C(=O)C=CC(C)=CC1COC1OC(C)C2OC(=S)OC2C1OC (centres unmarked) [Compound 59, 20-DH-20-O-Phenyl-lactenocin 3",4"-thiocarbonate]
- MIC ([1]; Staphylococcus aureus, S13E): 1 µg/mL (≈ 1.14 µM)
- MIC ([2]; Streptococcus pneumoniae): 2 µg/mL (≈ 2.28 µM)
- ED50 ([29]; C203, Oral): 54 mg/kg
- ED50 ([29]; C203, sc, Subcutaneous): 10 mg/kg
- MIC [17, 31]: > 128 µg/mL
- MIC ([18]; read-out: MIC): 16 µg/mL (≈ 18.2 µM)
- MIC ([20]; Streptococcus pyogenes, C203): 2 µg/mL (≈ 2.28 µM)
- MIC ([21]; Staphylococcus epidermidis, EPI1): 2 µg/mL (≈ 2.28 µM)
- MIC (Escherichia coli EC14; agar-dilution, read-out: MIC): > 128 µg/mL
- MIC [22, 32]: > 128 µg/mL
- MIC ([23]; Staphylococcus aureus, V41): 1 µg/mL (≈ 1.14 µM)
- MIC ([24]; Staphylococcus aureus, X400): 1 µg/mL (≈ 1.14 µM)
- MIC ([25]; Haemophilus influenzae, 76, agar-dilution, Ampicillin-resistant strain, read-out: MIC): 128 µg/mL (≈ 146 µM)
- MIC ([26]; Haemophilus influenzae, agar-dilution, Ampicillin-sensitive strain, read-out: MIC): 128 µg/mL (≈ 146 µM)
- MIC ([27]; Staphylococcus epidermidis, 222): 0.5 µg/mL (≈ 0.569 µM)
- MIC [30]: 32 µg/mL (≈ 36.4 µM)
- MIC ([28]; Staphylococcus aureus, X1.1): 1 µg/mL (≈ 1.14 µM)

Compound: CCC1OC(=O)CC(O)C(C)C(OC2OC(C)C(O)C(N(C)C)C2O)C(CCN2C[C@H](C)C[C@H](C)C2)CC(C)C(=O)C=CC(C)=CC1COC1OC(C)C=CC1OC (stereo partly drawn) [Compound 45, 3",4"-Di(dehydrodeoxy)-20-deoxo-20-(cis-3,5-dimethylpiperidin-1-yl)-lactenocin]
- MIC ([1]; Staphylococcus aureus, S13E): 0.06 µg/mL (≈ 0.0731 µM)
- MIC ([2]; Streptococcus pneumoniae): 0.06 µg/mL (≈ 0.0731 µM)
- MIC [17, 31]: > 128 µg/mL
- MIC ([18]; read-out: MIC): 0.25 µg/mL (≈ 0.304 µM)
- MIC ([20]; Streptococcus pyogenes, C203): 0.06 µg/mL (≈ 0.0731 µM)
- MIC (Escherichia coli EC14): 64 µg/mL (≈ 77.9 µM)
- MIC [22, 32]: 128 µg/mL (≈ 156 µM)
- MIC ([23]; Staphylococcus aureus, V41, agar-dilution, Penicillin-resistant strain, read-out: MIC): 0.12 µg/mL (≈ 0.146 µM)
- MIC ([24]; Staphylococcus aureus, X400, agar-dilution, Methicillin-resistant strain, read-out: MIC): 0.06 µg/mL (≈ 0.0731 µM)
- MIC ([25]; Haemophilus influenzae, 76): 1 µg/mL (≈ 1.22 µM)
- MIC ([26]; Haemophilus influenzae): 1 µg/mL (≈ 1.22 µM)
- MIC ([27]; Staphylococcus epidermidis, 222, agar-dilution, read-out: MIC): 0.12 µg/mL (≈ 0.146 µM)
- MIC [30]: 0.5 µg/mL (≈ 0.609 µM)
- MIC ([28]; Staphylococcus aureus, X1.1, agar-dilution, read-out: MIC): 0.12 µg/mL (≈ 0.146 µM)

Reference: patent publication US4820694A, “Modifications of 3-O-demethylmycinose in macrocin and lactenocin” (priority 1986, dated 1989)
